{
  "source": "paper PMC8075810",
  "about": "(Cell Chemical Biology, 2021)",
  "key": {"[1]": {"biological_target": "T1, SCoV2 PLpro (Severe acute respiratory syndrome coronavirus 2, UniProt P0DTD1)", "assay_type": "cell-based, SARS-CoV-2", "conditions": "10 μM, western blot"}, "[2]": {"biological_target": "T1, SCoV2 PLpro", "assay": "biochemical", "assay_type": "biochemical, SARS-CoV-2"}},
  "data": [
    {"molecule": "C[C@H](c1cccc2ccccc12)N1CCC(C(=O)NCc2cc(F)cc(NC(=O)N3CCN(C)CC3)c2)CC1", "note": "[Inhibitor 19, (R)-N-(3-fluoro-5-((1-(1-(naphthalen-1-yl)ethyl)piperidine-4-carboxamido)methyl)phenyl)-4-methylpiperazine-1-carboxamide]", "values": [
      {"measurement": "inhibition of SCoV2 PLpro (nsp1-nsp2 cleavage) in 293T cells", "setting": "[1]", "result": "significantly inhibited"}
    ]},
    {"molecule": "CC(C)c1cc(C(C)C)c(CC(=O)NS(=O)(=O)Oc2c(C(C)C)cccc2C(C)C)c(C(C)C)c1", "note": "[avasimibe]", "values": [
      {"measurement": "inhibition at 10 µM", "setting": "[2]; read-out: inhibition of SCoV2 PLpro", "result": "> 50", "unit": "%"}
    ]},
    {"molecule": "O=C(O)C(=O)c1cn(Cc2ccccc2)c2ccc(-c3ccc(OC(F)(F)F)cc3)cc12", "note": "[tiplaxtinin]", "values": [
      {"measurement": "inhibition of SCoV2 PLpro", "setting": "[2]; 10 μM compound, probe 7", "result": "over 50%"}
    ]},
    {"molecule": "vitamin B12", "values": [
      {"measurement": "inhibition of SCoV2 PLpro", "setting": "[2]; 10 µM", "result": "over 50%"}
    ]}
  ]
}
